Like-named read-outs stand apart in the source and are kept apart here.
Legend:
[1] = Pharmacokinetic two period crossover study of oral sumatriptan with or without anamorelin hydrochloride; format: in vivo; details: both sexes, human, plasma, 25 mg/dose
Procedure: The study was a two period crossover study in 22 healthy, normal men and women ages 18-45 years, conducted in open label format. […] Subjects were fasted overnight with a seven day wash out period between periods. […] All samples were analyzed using a validated bioanalytical method (LC-MS-MS).

[2] = Imitrex tablets, cited from earlier work

AUC(0-t) ([1]; plasma sumatriptan, sumatriptan succinate 25 mg oral tablet, alone or with anamorelin HCl 100 mg oral, fasted healthy subjects, N = 22, read-out: AUC 0-30, Mean): 2.53 ng·h/mL
AUC(0-t) ([1]; plasma sumatriptan, sumatriptan succinate 25 mg oral tablet, alone or with anamorelin HCl 100 mg oral, fasted healthy subjects, N = 22, read-out: AUC 0-30, Median): 2.56 ng·h/mL
Cmax ([1]; plasma sumatriptan, sumatriptan succinate 25 mg oral tablet, alone or with anamorelin HCl 100 mg oral, fasted healthy subjects, N = 22, read-out: Cmax, Mean): 20.3 ng/mL
Cmax ([1]; plasma sumatriptan, sumatriptan succinate 25 mg oral tablet, alone or with anamorelin HCl 100 mg oral, fasted healthy subjects, N = 22, read-out: Cmax, Median): 20.4 ng/mL
Tmax ([1]; plasma sumatriptan, sumatriptan succinate 25 mg oral tablet, alone or with anamorelin HCl 100 mg oral, fasted healthy subjects, N = 22, read-out: Tmax, Mean (converted)): 1.12 h
Tmax ([1]; plasma sumatriptan, sumatriptan succinate 25 mg oral tablet, alone or with anamorelin HCl 100 mg oral, fasted healthy subjects, N = 22, read-out: Tmax, Median (converted)): 0.883 h
AUC(0-t) ([1]; read-out: AUC last, Mean): 45.6 ng·h/mL
Compound: CNS(=O)(=O)Cc1ccc2[nH]cc(CCN(C)C)c2c1 [Sumatriptan, 1-[3-(2-dimethylaminoethyl)-1H-indol-5-yl]-N-methyl-methanesulfonamide]
time after administration until maximum blood concentrations are reached ([2]; during a migraine attack): 2.5 h
time after administration to reach maximum concentration in the plasma (average) ([2]; healthy adults): 2.0 h
